pIC50: −log10 of the molar value.
Experiments:
human CSNK1D = target: T1, human CSNK1D (Homo sapiens, UniProt P48730); assay: Whole Cell nBRET CSNK1D Binding Assay; conditions: living CHO cells stably expressing human CSNK1D tagged with nanoluciferase; NanoBret tracer 130 nM; 2 hours at 37 C
T1 construct: expressed in transfected cells

[1] = target: T2, human recombinant GST cleaved CSNK1D (Homo sapiens, UniProt P48730); assay: Purified Enzyme Assay (ADP-Glo CSNK1D Kinase Assay); format: biochemical; conditions: 2 nM CSNK1D; peptide substrate 150 μM; ATP 20 μM; 45 minutes at room temperature
T2 construct: GST (cleaved yes); purchased University of Dundee clone DU 19064
T2 sequence (P48730 whole entry): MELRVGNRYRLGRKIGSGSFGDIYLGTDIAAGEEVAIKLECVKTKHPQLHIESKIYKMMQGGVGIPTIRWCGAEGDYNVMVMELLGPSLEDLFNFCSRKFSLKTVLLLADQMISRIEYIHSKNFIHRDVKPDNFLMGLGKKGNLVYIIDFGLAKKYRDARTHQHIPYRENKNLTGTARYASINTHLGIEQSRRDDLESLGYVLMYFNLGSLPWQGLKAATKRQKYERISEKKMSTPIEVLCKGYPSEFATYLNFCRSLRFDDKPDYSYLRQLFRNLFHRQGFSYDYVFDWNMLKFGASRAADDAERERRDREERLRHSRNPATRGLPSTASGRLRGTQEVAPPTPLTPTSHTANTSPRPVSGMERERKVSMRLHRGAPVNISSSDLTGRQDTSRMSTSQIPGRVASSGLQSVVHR
Procedure, shortened: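 GST-cleaved human recombinant CSNK1D phosphorylates peptide PLSRTL-pS-VASLPGL with ATP; compounds added in dose-response, 45 min at room temperature. ADP formed measured by ADP-Glo luminescence and converted to percent activity.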

T1 sequence (P48730 whole entry): as above

| SMILES | pIC50 (human CSNK1D) | pIC50 [1] |
| --- | --- | --- |
| Cn1ncc2nccc(-c3c(-c4ccc(F)cn4)nn4c3COC(C)(C)C4)c21 [Example 159, 2-(5-Fluoropyridin-2-yl)-6,6-dimethyl-3-(1-methyl-1H-pyrazolo[4,3-b]pyridin-7-yl)-6,7-dihydro-4H-pyrazolo[5,1-c][1,4]oxazine] | < 5.00 | 5.93 |
| Fc1ccc(-c2nn3c(c2-c2c(F)cnc4[nH]ncc24)C[C@H](F)C3)cc1 [Example 227, 5-Fluoro-4-[(5S)-5-fluoro-2-(4-fluorophenyl)-5,6-dihydro-4H-pyrrolo[1,2-b]pyrazol-3-yl]-1H-pyrazolo[3,4-b]pyridine] | 8.52 | 9.00 |
| Fc1ccc(-c2nn3c(c2-c2ccnc4[nH]ncc24)CC[C@H]2C[C@H]23)cc1 (stereo in doubt) [Example 339, (5a*S,6a*R)-2-(4-Fluorophenyl)-3-(1H-pyrazolo[3,4-b]pyridin-4-yl)-5,5a,6,6a-tetrahydro-4H-cyclopropa[e]pyrazolo[1,5-a]pyridine] | 8.15 | 9.00 |
| O=C(Nc1cc(-c2c(-c3ccc(F)cn3)nn3c2OCC2(CC2)C3)ccn1)C1CC1 [Example 456, N-(4-(2′-(5-Fluoropyridin-2-yl)-5′H,7′H-spiro[cyclopropane-1,6′-pyrazolo[5,1-b][1,3]oxazin]-3′-yl)pyridin-2-yl)cyclopropanecarboxamide] | 8.15 | 9.00 |
| Fc1ccc(-c2nn3c(c2-c2c(F)cnc4[nH]ncc24)CC[C@H]2[C@@H]3C2(F)F)nc1 (single isomer, unassigned) [Example 358, (5a*S,6a*R)-6,6-difluoro-3-(5-fluoro-1H-pyrazolo[3,4-b]pyridin-4-yl)-2-(5-fluoropyridin-2-yl)-5,5a,6,6a-tetrahydro-4H-cyclopropa[e]pyrazolo[1,5-a]pyridine] | 7.07 | 8.40 |
| Fc1ccc(-c2nn3c(c2-c2ccnc4[nH]ncc24)[C@@H]2CC[C@H]3C2)cc1 (single isomer, unassigned) [Example 60, 4*R,7*S)-2-(4-Fluorophenyl)-3-(1H-pyrazolo[3,4-b]pyridin-4-yl)-4,5,6,7-tetrahydro-4,7-methanopyrazolo[1,5-a]pyridine] | 8.52 | 9.00 |
| Fc1ccc(-c2nn3c(c2-c2ccnc4[nH]ncc24)CO[C@H](C2CC2)C3)nc1 (single isomer, unassigned) [Example 108, (*R)-6-Cyclopropyl-2-(5-fluoropyridin-2-yl)-3-(1H-pyrazolo[3,4-b]pyridin-4-yl)-6,7-dihydro-4H-pyrazolo[5,1-c][1,4]oxazine] | 6.17 | 7.39 |
| Cc1cc(-c2c(-c3ccc(F)cn3)nn3c2C[C@@]2(C3)CC2(F)F)c2cn[nH]c2n1 (single isomer, unassigned) [Example 260, (*S)-1′,1′-Difluoro-2-(5-fluoro-2-pyridyl)-3-(6-methyl-1H-pyrazolo[3,4-b]pyridin-4-yl)spiro[4,6-dihydropyrrolo[1,2-b]pyrazole-5,2′-cyclopropane]] | 6.97 | 8.52 |

Further lines, results first:

| pIC50 (human CSNK1D) | pIC50 [1] | SMILES |
| --- | --- | --- |
| 7.85 | 8.40 | CC1(C)Cn2nc(-c3ccc(F)cn3)c(-c3ccnc4[nH]nc(Cl)c34)c2CO1 [Example 388, 3-(3-Chloro-1H-pyrazolo[3,4-b]pyridin-4-yl)-2-(5-fluoropyridin-2-yl)-6,6-dimethyl-6,7-dihydro-4H-pyrazolo[5,1-c][1,4]oxazine] |
| 7.23 | 8.52 | CC1CCn2nc(-c3ccc(F)cn3)c(-c3ccnc4[nH]ncc34)c2O1 (single isomer, unassigned) [Example 198, (*S)-2-(5-Fluoro-2-pyridyl)-5-methyl-3-(1H-pyrazolo[3,4-b]pyridin-4-yl)-6,7-dihydro-5H-pyrazolo[5,1-b][1,3]oxazine] |
| 5.85 | 7.59 | COc1cccc(-c2nn3c(c2-c2ccnc4[nH]ncc24)COC(C)(C)C3)n1 [Example 161, 2-(6-Methoxypyridin-2-yl)-6,6-dimethyl-3-(1H-pyrazolo[3,4-b]pyridin-4-yl)-6,7-dihydro-4H-pyrazolo[5,1-c][1,4]oxazine] |
